pIC50: −log10 of the molar value.

The experiment addresses T1, purified human placenta 20S proteasome (Homo sapiens, UniProt P28074).
T1 construct: purified human placenta 20S proteasome; tissue Diabetes Forschungsinstitut, Düsseldorf, Germany; host or cells: human placenta
Description: Inhibition of the chymotrypsin-like activity of the 20S proteasome (Suc-LLVY-AMC hydrolysis, fluorescence). To be noted: substrate Suc-LLVY-AMC 80 μM, 60 min preincubation at room temperature, incubation 3-24 h at 37° C. It counts as biochemical. Here is the method:
It is based on the hydrolysis of the fluorogenic peptide Suc-LLVY-AMC (Succinyl-leucine-leucine-valine-tyrosine-7-amino-4-methylcoumarin), which is cleaved exclusively at the Y-AMC bond by the 20S proteasome. Hydrolysis of this peptide is accompanied by an increase in fluorescence intensity (λex355 nm, λem460 nm) due to release of the […] that accompanies diffusion apart of the hydrolysis product Suc-LLVY.
2 μl of a 1 mM solution of a test compound in DMSO (dimethylsulfoxide, 20 μM final concentration in the well) are preincubated for 60 min at room temperature in black 96-well microtiter plates together with a mixture of 1 μl purified human placenta 20S proteasome (Diabetes Forschungsinstitut, Düsseldorf, Germany; about 100 ng proteasome, depending on the proteasome preparation) and 47 μl buffer-Ca (5 mM CaCl2, 20 mM Trs/HCl (Tris(hydroxymethyl)-amino-methane hydrochloride) pH 8.0). 3 pd of a 2.67 mM solution of Suc-LLVY-AMC (Bachem, Switzerland) in DMSO (80 μM final concentration in the well) and 47 μl buffer-Ca are mixed and added. The resulting mixture is incubated for 3-24 h at 37° C. If desired, proteolysis of the substrate can be stopped by addition of 50 μl stop solution (100 mM monochloroacetic acid, 130 mM NaOH, 100 mM acetic acid, pH=4.3). The fluorescence is monitored with a FLUOROSKAN ASCENT™ microtiter plate reader.
To each measure series two control experiments have to be carried out • 1.) 0% value: 2 μl DMSO are used in the above described assay instead of 2 μl of a 1 mM solution of a test compound in DMSO and 48 μl buffer-Ca instead of a mixture of 47 μl buffer-Ca and 1 μl purified proteasome. • 2.) 100% value: in the above described assay 2 μl DMSO are used instead of 2 μl of a 1 mM solution of the test compound in DMSO. Calculation [formula]
The IC50 value is defined as that concentration of a compound at which the remaining activity is 50%.
Usually pIC50 stands for −log10 of the IC50, conventionally taken in molar units. Turning to `COc1ccc(CN[C@@H](C(=O)N[C@H](C(=O)NCc2ccc(OC)cc2O)C(C)C)[C@@H](O)[C@H](Cc2ccccc2)NC(=O)[C@@H](NC(=O)OCc2ccccc2)C(C)(C)C)cc1` [Example 1], the pIC50 was 6.05. The value for `COC(=O)CCC(NC(=O)C(NCc1ccc(OC)cc1)C(O)C(Cc1ccccc1)NC(=O)C(NC(=O)OCc1ccccc1)C(C)C)C(=O)NCc1ccc(OC)cc1O` (centres unmarked) [Example 2, 4-[4-(2-Benzyloxycarbonylamino-3-methyl-butyrylamino)-3-hydroxy-2-(4-methoxy-benzylamino)-5-phenyl-pentanoylamino]-4-(2-hydroxy-4-methoxy-benzyl-carbomoyl)-butyric acid methyl ester] was 6.40; that for `COc1ccc(CNC(C(=O)NC(C(=O)NCc2ccc(OC)cc2O)C(C)C)C(O)C(Cc2ccccc2)NC(=O)C(NC(=O)OC(C)(C)C)C(C)(C)C)cc1` (centres unmarked) [Example 3, {1-[1-Benzyl-2-hydroxy-3-[1-(2-hydroxy-4-methoxy-benzylcarbamoyl)-2-methyl-propylcarbamoyl]-3-(4-methoxy-benzylamino)-propylcarbamoyl]-2,2-dimethyl-propyl}-carbamic acid tert-butyl ester] was 4.59. The value for `COc1ccc(CNC(C(=O)NC(C(=O)NCc2ccc(OC)cc2O)C(C)C)C(O)C(Cc2ccccc2)NC(=O)C(NC(=O)OCc2cccc3ccccc23)C(C)(C)C)cc1` (centres unmarked) [Example 4, {1-[1-Benzyl-2-hydroxy-3-[1-(2-hydroxy-4-methoxy-benzyl-carbamoyl)-2-methyl-propylcarbamoyl]-3-(4-methoxy-benzylamino)-propylcarbamoyl]-2,2-dimethyl-propyl}-carbamic acid naphthalen-1-ylmethyl ester] was 5.70; that for `COc1ccc(CNC(C(=O)NC(C(=O)NCc2ccc(OC)cc2O)C(C)C)C(O)C(Cc2ccccc2)NC(=O)C(NC(=O)OCc2ccc3ccccc3c2)C(C)(C)C)cc1` (centres unmarked) [Example 5, {1-[1-Benzyl-2-hydroxy-3-[1-(2-hydroxy-4-methoxy-benzylcarbamoyl)-2-methyl-propylcarbamoyl]-3-(4-methoxy-benzylamino)-propylcarbamoyl]-2,2-dimethyl-propyl}-carbamic acid naphthalen-2-ylmethyl ester] was 5.28. Next, `COc1ccc(CNC(C(=O)NC(C(=O)NCc2ccc(OC)cc2O)C(C)C)C(O)C(Cc2ccccc2)NC(=O)C(NC(=O)OCc2ccncc2)C(C)(C)C)cc1` (centres unmarked) [Example 6, {1-[1-Benzyl-2-hydroxy-3-[1-(2-hydroxy-4-methoxy-benzylcarbamoyl)-2-methyl-propylcarbamoyl]-3-(4-methoxy-benzylamino)-propylcarbamoyl]-2,2-dimethyl-propyl}-carbamic acid pyridin-4-ylmethyl ester]: 5.66; `COc1ccc(CNC(C(=O)NC(C(=O)NCc2ccc(OC)cc2O)C(C)C)C(O)C(Cc2ccccc2)NC(=O)CNC(=O)OCc2ccccc2)cc1` (centres unmarked) [Example 7, {[1-Benzyl-2-hydroxy-3-[1-(2-hydroxy-4-methoxy-benzylcarbamoyl)-2-methyl-propylcarbamoyl]-3-(4-methoxy-benzylamino)-propylcarbamoyl]-methyl}-carbamic acid benzyl ester]: 5.05; `COc1ccc(CNC(C(=O)NC(C(=O)NCc2ccc(OC)cc2O)C(C)C)C(O)C(Cc2ccccc2)NC(=O)C(NC(=O)OCc2ccccc2)C(C)C)cc1` (centres unmarked) [Example 8, {1-[1-Benzyl-2-hydroxy-3-[1-(2-hydroxy-4-methoxy-benzylcarbamoyl)-2-methyl-propylcarbamoyl]-3-(4-methoxy-benzylamino)-propylcarbamoyl]-2-methyl-propyl}-carbamic acid benzyl ester]: 5.48. `COc1ccc(CNC(C(=O)NC(C(=O)NCc2ccc(OC)cc2O)C(C)C)C(O)C(Cc2ccccc2)NC(=O)C(NC(=O)Cc2cccc3ccccc23)C(C)(C)C)cc1` (centres unmarked) [Example 10, 4-[3,3-Dimethyl-2-(2-naphthalen-1-yl-acetylamino)-butyrylamino]-3-hydroxy-2-(4-methoxy-benzylamino)-5-phenyl-pentanoic acid [1-(2-hydroxy-4-methoxy-benzyl-carbamoyl)-2-methyl-propyl]-amide]: the pIC50 is 7.00. The value for `COc1ccc(CNC(C(=O)NC(C(=O)NCc2ccc(OC)cc2O)C(C)C)C(O)C(Cc2ccccc2)NC(=O)C(NC(=O)OCc2cccc(C)c2)C(C)(C)C)cc1` (centres unmarked) [Example 11, {1-[1-Benzyl-2-hydroxy-3-[1-(2-hydroxy-4-methoxy-benzylcarbamoyl)-2-methyl-propylcarbamoyl]-3-(4-methoxy-benzylamino)-propylcarbamoyl]-2,2-dimethyl-propyl}-carbamic acid 3-methylbenzyl ester] was 6.30; that for `COc1ccc(CNC(C(=O)NC(C(=O)NCc2ccc(OC)cc2O)C(C)C)C(O)C(Cc2ccccc2)NC(=O)C(NC(=O)CCc2cccc(N)c2)C(C)(C)C)cc1` (centres unmarked) [Example 12, 4-{2-[3-(3-Amino-phenyl)-propionylamino]-3,3-dimethyl-butyrylamino}-3-hydroxy-2-(4-methoxy-benzylamino)-5-phenyl-pentanoic acid [1-(2-hydroxy-4-methoxy-benzylcarbamoyl)-2-methyl-propyl]-amide] was 6.22. Take `COc1ccc(CNC(C(=O)NC(C(=O)NCc2ccc(OC)cc2O)C(C)C)C(O)C(Cc2ccccc2)NC(=O)C(NC(=O)OCc2cccc(N)c2)C(C)(C)C)cc1` (centres unmarked) [Example 13, {1-[1-Benzyl-2-hydroxy-3-[1-(2-hydroxy-4-methoxy-benzylcarbamoyl)-2-meth-propylcarbamoyl]-3-(4-methoxy-benzylamino)-propylcarbamoyl]-2,2-dimethyl-propyl}-carbamic acid 3-amino-benzyl ester]: the negative logarithm of the IC50 (pIC50) was 6.22. The value for `COc1ccc(CNC(C(=O)NC(C(=O)NCc2ccc(OC)cc2O)C(C)C)C(O)C(Cc2ccccc2)NC(=O)C(NC(=O)OCc2cc(C)cc(C)c2)C(C)(C)C)cc1` (centres unmarked) [Example 14, {1-[1-Benzyl-2-hydroxy-3-[1-(2-hydroxy-4-methoxy-benzyl-carbamoyl)-2-methyl-propylcarbamoyl]-3-(4-methoxy-benzylamino)-propylcarbamoyl]-2,2-dimethyl-propyl}-carbamic acid 3,5-dimethyl-benzyl ester] was 5.96; that for `COc1ccc(CN[C@@H](C(=O)N[C@H](C(=O)NCc2ccc(OC)cc2O)C(C)C)[C@@H](O)[C@H](Cc2ccccc2)NC(=O)[C@@H](NC(=O)OCC2CCCCC2)C(C)(C)C)cc1` [Example 15, {(S)-1-[(1S,2S,3R)-1-Benzyl-2-hydroxy-3-[(S)-1-(2-hydroxy-4-methoxy-benzylcarbamoyl)-2-methyl-propylcarbamoyl]-3-(4-methoxy-benzylamino)-propylcarbamoyl]-2,2-dimethyl-propyl}-carbamic acid cyclohexylmethyl ester] was 6.00.

Source of the values: US20050026994A1, “Use of 2, 4diamino-3-hydroxycarboxylic acid derivatives as proteasome inhibitors” (priority 2000, published 2005).
